Entries after “also recorded” stand apart in the source; their conditions may differ. Where two headings read alike, the source gives them in different places.
How the values were obtained:
VSV proteins = assay type: cell-based, vesicular stomatitis virus; settings: VSV-infected MA104 cells, [35S]-methionine, SDS-PAGE
NF-κB = assay: TPA-induced NF-κB activation by EMSA in Jurkat cells; settings: for TPA-induced NF-κB activation at 500 μM: 500 μM for 1 hour then TPA 25 ng/ml; for concentrations found to inhibit NF-κB activation: FIG. 10; for IC90: read-out: NF-κB inhibition IC90, TPA 25 ng/ml
Description: (§1) Three hours after treatment, whole cell extracts were prepared and analyzed by EMSA (Electrophoretic Mobility Shift Assay) as described in Amici et al., 1995, supra. After a 20 minute incubation at room temperature, HSF-HSE or NF-κB-DNA-complexes were analyzed by nondenaturing 4% polyacrylamide gel electrophoresis and autoradiography. The amount of shifted HSE probe and NF-κB probe, an indicator of HSF DNA-binding activity and NF-κB activity, respectively, were quantitated by Molecular Dynamics Phospholmager (MDP) analysis.
(§2) At different times or three hours after treatment, whole cell extracts were prepared and analyzed by EMSA (Electrophoretic Mobility Shift Assay) as described in Amici et al., 1995, supra. Briefly, extracts (10 μg/sample) were mixed with 0.1 ng of a ^32P-NF-κB element or ^32P—HSE oligonucleotide and 0.5 μg of poly(dI-dC) (Pharmacia Biotech Inc.) in 25 μl of binding buffer (10 nM Tris-Cl, pH 7.8, 50 mM NaCl, 1 mM EDTA, 0.5 mM dithiothreitol, 5% glycerol). After a 20 minute incubation at room temperature, HSF-HSE or NF-κB-DNA-complexes were analyzed by nondenaturing 4% polyacrylamide gel electrophoresis and autoradiography. The amount of shifted HSE probe and NF-κB probe, an indicator of HSF DNA-binding activity and NF-κB activity, respectively, were quantitated by Molecular Dynamics Phospholmager (MDP) analysis.
(§3) Jurkat cells were incubated with the compounds listed in Table 1 (infra) or reference diluent at different concentrations for 1 hour and then were stimulated with TPA (25 ng/ml). After 1 hour at 37° C. the whole-cell extracts were prepared and subjected to EMSA to determine NF-κB and HSF activation. The levels of binding-DNA activity of NF-κB were quantified with Molecular Dynamics Phosphorlmager analysis.

HSP70 gene transcription = assay: Transcription run-on assay in isolated K562 nuclei
Description: In vitro run-on transcription reactions were performed in isolated K562 nuclei as described in Banerji et al, 1984, Mol. Cell. […] The vector plasmid (pBluescript) was used as a non-specific hybridization control. Following hybridization, the filters were visualized by autoradiography and the radioactivity was quantitated by MDP analysis. The values are expressed as arbitrary units obtained by comparing transcription rates to control levels.

[1] = tested on: heat shock transcription factor (HSF); assay: HSF activation by EMSA in K562 cells; settings: 500 μM
Description: K562 human erythroleukemia cells, monolayers of monkey kidney cells (MA104 cells), and Jurkat cells were grown in RPMI 1640 medium supplemented with 10% fetal calf serum and antibiotics at 37° C. in a 5% CO2 humidified atmosphere (Amici et al., 1995, Cancer Research 55: 14452-4457).
At different times following 2-cyclopenten-1-one treatment or 3 hours following heat shock, whole cell extracts were prepared and analyzed by EMSA (Electrophoretic Mobility Shift Assay) as described in Amici et al., 1995, supra.

[2] = tested on: vesicular stomatitis virus (VSV), Indiana serotype (Orsay); assay type: cell-based; settings: MA104 cells
HSP70 [3] = assay: HSP70 and total protein synthesis in K562 cells ([35S]-methionine); settings: 500 μM
Description: K562 cells treated with 500 μM 2 cyclopenten-1-one for different times were pulse-labeled with L-[^35S]-methionine (10 μCi/10^6 cells) for 1 hour. Cells were washed with phosphate buffered saline (PBS) and lysed with 400 μl of lysis buffer (20 nM Tris-Ci, pH 7.4, 0.1 M NaCl, 5 mM MgCl2, 1% Nonidet P-40, 0.5% SDS) containing protease inhibitors. After cell lysis, the radioactivity incorporated into trichloroacetic acid-insoluble material was determined, and an aliquot of samples containing the same amount of radioactivity were analyzed by 10% SDS-PAGE and autoradiography. HSP70 synthesis was determined by densitometric analysis of the autoradiograms. Total protein synthesis was determined as [^35S]-methionine incorporation into TCA-insoluble material (Amici et al., 1993, Exp. Cell. Res. 207. 230-234).

[4] = tested on: heat shock transcription factor (HSF); assay: HSF activation by EMSA in Jurkat cells; settings: for HSF activation at 500 μM: 500 μM for 1 hour then TPA; for concentrations found to activate HSF: TPA 25 ng/ml, FIG. 10
Description: as §1, §2, §3

[5] = tested on: Influenza A virus A/PR8/34 (H1N1) (PR8 virus); assay: PR8 influenza virus replication in MDCK cells (HAU and CPE50%); assay type: cell-based
[6] = tested on: HSP90 and HSP70 gene transcription; assay: Transcription run-on assay in isolated Jurkat nuclei; assay type: cell-based, human
HSP70 [7] = assay: Cellular and heat shock protein synthesis in MDCK cells; assay type: cell-based, canine
PR8 influenza virus = assay: Survival and body weight of PR8-infected Balb/c mice; assay type: in vivo
[8] = 10 μg/day/mouse i.p., for 4 days
PR8 virus = assay: Virus titer in the lungs of PR8-infected mice; assay type: in vivo, Balb/c mice; settings: 10 μg/mouse/day i.p., four days after infection with 1 HAU PR8 virus/mouse
[9] = tested on: PR8 influenza virus proteins; assay type: cell-based, Influenza A virus

O=C1C=CCC1 [2-cyclopenten-1-one]
effect on VSV protein synthesis (VSV proteins): selective block of the viral protein synthesis
TPA-induced NF-κB activation at 500 μM (NF-κB): not detectable; also recorded: inhibits TPA-induced NF-κB activation
lowest concentration inhibiting NF-κB activation by TPA (NF-κB; TPA 25 ng/ml): 125 µM
HSP70 mRNA transcription by 24 hours after treatment (HSP70 gene transcription): decreased
time after treatment at which HSP70 mRNA transcription was detected (HSP70 gene transcription): 1.5 h
time after treatment at which HSP70 transcription rates were maximal (HSP70 gene transcription): 6 to 9 h
transcription of other stress proteins (HSC70, GRP78/BiP, heme-oxygenase) (HSP70 gene transcription): not affected
less activated HSF at 24 hours than at 9 hours after treatment [1]: Approximately 50%
time after treatment at which activation of HSF was detected [1]: 1.5 h
time after treatment of maximum levels of HSF activation [1]: 9 h
inhibition of production of VSV infectious particles with respect to control ([2]; 24 h p.i., lower end of 100-500 μM): 10 times
inhibition of production of VSV infectious particles with respect to control ([2]; 24 h p.i., upper end of 100-500 μM): more than 1000 times
HSP70 protein synthesis versus cellular protein synthesis (HSP70 [3]): selectively stimulate HSP70 protein synthesis
HSF activation at 500 μM ([4]; EMSA): detected
HSF activation at 125 μM ([4]; same samples as NF-κB EMSA): detectable

O=C1CCCC1 [cyclopentanone, reference compound]
TPA-induced NF-κB activation at 500 μM (NF-κB): do not inhibit NF-κB activation
HSF activation at 500 μM ([4]; EMSA): not detected

tosyl-L-phenylalanine-chloromethylketone [TPCK]
concentrations found to inhibit NF-κB activation (NF-κB; TPA 25 ng/ml): 12.5 to 25 µM
IC90 (NF-κB): 12 µM
concentrations found to activate HSF ([4]; EMSA): 12.5 to 25 µM

CC(=O)NC(Cc1ccccc1)C(=O)Oc1ccc2ccccc2c1 (racemic) [APNE, N-acethyl-DL-phenylalanine-β-napthylester]
IC90 (NF-κB): 300 µM

C1=CCCC1 [cyclopentene, reference compound]
TPA-induced NF-κB activation at 500 μM (NF-κB): do not inhibit NF-κB activation
HSF activation at 500 μM ([4]; EMSA): not detected

CCCCC[C@H](O)/C=C/[C@H]1C=CC(=O)[C@@H]1CCCCCCC(=O)O [PGA1, Prostaglandin A1]
effect on PR8 virus replication, comparison of prostaglandins [5]: only modestly and transiently inhibited
decrease of PR8 virus yield up to 48 hours p.i. ([5]; MDCK cells, 10 μg/ml, data not shown): more than 90 % of control

O=c1oc(Cl)c(Cl)c2ccccc12 [DCIC, 3,4-dichloro-iso-coumarine]
effect on VSV protein synthesis (VSV proteins): selective block of the viral protein synthesis
concentrations found to inhibit NF-κB activation (NF-κB; TPA 25 ng/ml): 5 to 10 µM
IC90 (NF-κB): 5.5 µM
inhibition of production of VSV infectious particles with respect to control ([2]; lower end of 5-45 μM): 50%
inhibition of production of VSV infectious particles with respect to control ([2]; upper end of 5-45 μM): more than 98%
HSP90 and HSP70 mRNA transcription by 24 hours after treatment [6]: decreased
selectivity of stress protein induction (HSP90, Grp78, HSC70, HSP70) [6]: selectively induces the expression of HSP90 and HSP70
time after treatment at which HSP90 and HSP70 mRNA transcription were detected [6]: 1 h
time after treatment at which HSP90 and HSP70 transcription rates were maximal [6]: about 3 hours
duration of HSF activation following initiation of treatment ([4]; 5 μM, EMSA): 12 h
time after treatment at which activation of HSF was detected ([4]; 5 μM, EMSA): 1 h
time after treatment of maximum levels of HSF activation ([4]; 5 μM, EMSA): 3 h
concentrations found to activate HSF ([4]; EMSA): 5 to 10 µM

CCCCCC(O)C/C=C1/C(=O)C=CC1C/C=C\CCCC(=O)O (stereo not drawn) [Δ^12-PGJ2, 9-deoxy-Δ^9,Δ^12-13,14-dihydro-PGD2]
time after treatment at which HSP70 synthesis was detectable (HSP70 [7]): 3 h
time for which HSP70 synthesis continued to be detectable (HSP70 [7]): at least 12 hours
synthesis of HSP90 (HSP70 [7]; MDCK cells, 6 μg/ml): enhanced
synthesis of HSC70 and HSP70 (HSP70 [7]; MDCK cells, 6 μg/ml, SDS-PAGE and immunoblot): markedly induced
protein synthesis in uninfected cells (HSP70 [7]; uninfected MDCK cells, 6 μg/ml, 24 hours): modest reduction
mouse survival (PR8 influenza virus; 1 μg/day/mouse i.p. for 7 days, FIG. 15A): no effect on mouse survival
survival of the animals (PR8 influenza virus; 5 μg/day/mouse i.p. daily for 7 days, FIG. 15B): 60%
mice survival on day 25 p.i. (PR8 influenza virus; 5 μg/day/mouse i.p. for 7 days, FIG. 15A): 50%
survival of the animals (PR8 influenza virus; 5 μg/day/mouse i.p. on days 0, 2 and 4, FIG. 15B): approximately 30%
body weight at 7 days p.i. (PR8 influenza virus; PR8-infected mice, 7-day treatment, 5 μg/day/mouse): 18.25 ± 0.68 g
signs of toxicity [8]: did not show any sign of toxicity
loss of body weight in infected animals ([8]; data not shown): reduced
virus titer in the lungs (PR8 virus): 0.07±0.03×10^4 CPE50% units/gr of lung tissue
PR8 virus yield at concentrations higher than 6 μg/ml [5]: not detectable
PR8 virus yield in HAU [5]: 0 HAU
effect on PR8 virus replication, comparison of prostaglandins [5]: most effective cyclopentenone prostaglandin
infectious virus titer [5]: 3.2+0.6×10^1 CPE5O % units/ml
inhibition of PR8 virus production [5]: greater than 95 % of control
reduction of infectious virus titers [5]: more than 99 % of control
period for which antiviral activity is sustained ([5]; MDCK cells, 6 μg/ml): at least 72 hours p.i.
inhibition of PR8 virus replication up to 72 h p.i. ([5]; MDCK cells, single treatment with 6 μg/ml): more than 95%
uptake of precursors and DNA and RNA synthesis (MDCK cells): did not inhibit either the uptake of precursors or DNA and RNA synthesis
virus-induced inhibition of cellular RNA synthesis (MDCK cells): prevented
PR8 protein synthesis [9]: dramatic reduction
viral proteins by immunoblot analysis at 24 hours p.i. [9]: not detectable

Nα-tosyl-lysine-chloromethylketone [TLCK]
concentrations found to inhibit NF-κB activation (NF-κB; TPA 25 ng/ml): 30 to 75 µM
IC90 (NF-κB): 135 µM
concentrations found to activate HSF ([4]; EMSA): 30 to 75 µM

Reference: patent publication US20050020687A1, “Methods of treating inflammatory and viral disorders by administering cyclopentenone compounds” (priority 1996, published 2005)
